Calls of active or inactive are those of the source. The rule behind the calls is not given here.
Key:
[1] = Solubility of the compound in water; type: physicochemical; conditions: buffer
[2] = tested on: Nucleic Acid; assay: Binding affinity to poly dA-poly dT RNA in citric acid buffer at pH 5 by fluorescence titration assay; type: nucleic-acid assay
[3] = tested on: Nucleic Acid; assay: Binding affinity to poly A-poly U RNA in citric acid buffer at pH 5 by fluorescence titration assay relative to control; type: nucleic-acid assay
[4] = tested on: Nucleic Acid; assay: Binding affinity to poly dA-poly dT RNA in sodium cacodylate buffer at pH 7 by fluorescence titration assay relative to control; type: nucleic-acid assay
[5] = tested on: Calf thymus DNA; assay: Binding affinity to calf thymus DNA in citric acid buffer at pH 5 by UV-v titration assay; type: nucleic-acid assay; conditions: Bos taurus
[6] = tested on: Nucleic Acid; assay: Binding affinity to […] in citric acid buffer at pH 5 by UV-v titration assay; type: nucleic-acid assay
[7] = tested on: Nucleic Acid; assay: Binding affinity to poly G-poly C RNA in sodium cacodylate buffer at pH 7 by UV-v titration assay; type: nucleic-acid assay
[8] = tested on: Nucleic Acid; assay: Binding affinity to […] assessed as change in melting temperature at compound to DNA molar ratio of 0.3 at pH 5 by thermal denaturation assay; type: nucleic-acid assay
[9] = tested on: Nucleic Acid; assay: Binding affinity to poly A-poly U RNA assessed as change in melting temperature at compound to DNA molar ratio of 0.3 at pH 5 by thermal denaturation assay; type: nucleic-acid assay
[10] = tested on: Nucleic Acid; assay: Binding affinity to poly A-poly U RNA at compound to DNA molar ratio of 0.1 to 0.5 at pH 5 by circular dichroism; type: nucleic-acid assay
[11] = tested on: Nucleic Acid; assay: Binding affinity to poly A-poly U RNA at compound to DNA molar ratio of 0.1 to 0.5 at pH 7 by circular dichroism; type: nucleic-acid assay
[12] = tested on: Nucleic Acid; assay: Binding affinity to poly A-poly U RNA at compound to DNA molar ratio of 0.1 to 0.4 at pH 5 by circular dichroism; type: nucleic-acid assay
[13] = tested on: HEp-2; assay: Cytotoxicity against human Hep2 cells at 0.1 to 100 uM after 72 hrs by MTT assay; type: functional, cell-based
[14] = tested on: Nucleic Acid; assay: Binding affinity to GMP in citric acid buffer at pH 5 by fluorescence titration assay relative to control; type: nucleic-acid assay
[15] = tested on: Calf thymus DNA; assay: Binding affinity to calf thymus DNA assessed as melting temperature at compound to DNA molar ratio of 0.3 at pH 5 by thermal denaturation assay; type: nucleic-acid assay; conditions: Bos taurus
[16] = tested on: Nucleic Acid; assay: Binding affinity to […] assessed as melting temperature at compound to DNA molar ratio of 0.2 at pH 5 by thermal denaturation assay; type: nucleic-acid assay
[17] = tested on: Nucleic Acid; assay: Binding affinity to […] assessed as melting temperature at compound to DNA molar ratio of 0.3 at pH 5 by thermal denaturation assay; type: nucleic-acid assay
[18] = tested on: Nucleic Acid; assay: Binding affinity to poly A-poly U RNA assessed as melting temperature at compound to DNA molar ratio of 0.2 at pH 5 by thermal denaturation assay; type: nucleic-acid assay
[19] = tested on: Nucleic Acid; assay: Binding affinity to poly A-poly U RNA assessed as melting temperature at compound to DNA molar ratio of 0.3 at pH 5 by thermal denaturation assay; type: nucleic-acid assay
[20] = tested on: Calf thymus DNA; assay: Binding affinity to calf thymus DNA assessed as melting temperature at compound to DNA molar ratio of 0.3 at pH 7 by thermal denaturation assay; type: nucleic-acid assay; conditions: Bos taurus
[21] = tested on: Nucleic Acid; assay: Binding affinity to poly A-poly U RNA assessed as melting temperature at compound to DNA molar ratio of 0.3 at pH 7 by thermal denaturation assay; type: nucleic-acid assay
[22] = tested on: Nucleic Acid; assay: Binding affinity to poly A-poly U RNA assessed as biphasic transitions of change in melting temperature at compound to DNA molar ratio of 0.3 at pH 5 by thermal denaturation assay; type: nucleic-acid assay
[23] = tested on: Nucleic Acid; assay: Binding affinity to poly A-poly U RNA assessed as biphasic transitions of melting temperature at compound to DNA molar ratio of 0.3 at pH 5 by thermal denaturation assay; type: nucleic-acid assay
[24] = tested on: Nucleic Acid; assay: Binding affinity to poly A-poly U RNA in citric acid buffer at pH 5 by UV-v titration assay; type: nucleic-acid assay
[25] = tested on: Nucleic Acid; assay: Binding affinity to poly A-poly U RNA in sodium cacodylate buffer at pH 7 by UV-v titration assay; type: nucleic-acid assay
[26] = tested on: Calf thymus DNA; assay: Binding affinity to calf thymus DNA at compound to DNA molar ratio of 0.1 to 0.5 at pH 7 by circular dichroism; type: nucleic-acid assay; conditions: Bos taurus
[27] = tested on: Nucleic Acid; assay: Binding affinity to poly G-poly C RNA in citric acid buffer at pH 5 by UV-v titration assay; type: nucleic-acid assay
[28] = tested on: Caco-2; assay: Cytotoxicity against human Caco-2 cells at 10 to 100 uM after 72 hrs by MTT assay; type: functional, cell-based
[29] = tested on: MIA PaCa-2; assay: Cytotoxicity against human MIAPaCa2 cells at 10 to 100 uM after 72 hrs by MTT assay; type: functional, cell-based
[30] = tested on: HEp-2; assay: Cytotoxicity against human Hep2 cells at 10 to 100 uM after 72 hrs by MTT assay; type: functional, cell-based
[31] = tested on: HeLa; assay: Cytotoxicity against human HeLa cells at 10 to 100 uM after 72 hrs by MTT assay; type: functional, cell-based
[32] = tested on: HT-29; assay: Cytotoxicity against human HT-29 cells at 10 to 100 uM after 72 hrs by MTT assay; type: functional, cell-based
[33] = tested on: HeLa; assay: Drug uptake in human HeLa cells at 1 mM after 10 mins using DAPI staining by fluorescence microscopy analysis; type: ADME, cell-based; conditions: 1000 µM
[34] = tested on: MIA PaCa-2; assay: Drug uptake in human MIAPaCa2 cells at 1 mM after 10 mins using DAPI staining by fluorescence microscopy analysis; type: ADME, cell-based; conditions: mia paca-2, 10 min, 1000 µM

| SMILES | solubility [1] | log Ks [2] | RFU [3] | RFU [4] | log Ks [5] | log Ks [7] | ΔTm [8] | ΔTm [9] | Activity [10] | Activity [11] | Activity [12] | Activity [13] | RFU [14] | Tm [15] | Tm [16] | Tm [17] | Tm [18] | Tm [19] | Tm [20] | Tm [21] | other results |
| --- | --- | --- | --- | --- | --- | --- | --- | --- | --- | --- | --- | --- | --- | --- | --- | --- | --- | --- | --- | --- | --- |
| Cc1c2cc(NC(=O)NCCNC(=O)Nc3ccc4c(c3)c(C)[n+](C)c3ccccc43)ccc2c2ccccc2[n+]1C.O=S(=O)([O-])O.O=S(=O)([O-])O | 1460 µM | 6.1 | 2.3 | 15 | 6 | 5.2 | 10.7 °C | 1.9 °C | Active | Active | Active | Active | 23.5 | 75.6 °C | 59.4 °C | 60.7 °C | 84.1 °C | 83.8 °C | 83.1 °C | 51.6 °C | log Ks [6]: 5.2; ΔTm [22]: -0.4 °C; Tm [23]: 31.1 °C |
| Cc1c2cc(NC(=O)NCCCCCCCCCNC(=O)Nc3ccc4c(c3)c(C)[n+](C)c3ccccc43)ccc2c2ccccc2[n+]1C.O=S(=O)([O-])O.O=S(=O)([O-])O | 1060 µM | 6.6 | 8.1 | 3.9 |  | 5.8 | 7.7 °C | 1.9 °C | Active | Active |  | inactive | -7.2 | 74 °C | 57.5 °C | 57.7 °C | 82.9 °C | 82.6 °C | 85.1 °C | 53.6 °C | log Ks [24]: 5.4; log Ks [25]: 5.1; Activity [26]: Active; ΔTm [22]: -1.6 °C; Tm [23]: 31.1 °C |
| Cc1c2cc(NC(=O)NCCCCCCNC(=O)Nc3ccc4c(c3)c(C)[n+](C)c3ccccc43)ccc2c2ccccc2[n+]1C.O=S(=O)([O-])O.O=S(=O)([O-])O | 1240 µM | 6.1 | 20 | 10.7 | 5.4 |  | 10.4 °C |  | Active | Active | Active | Active | 31.6 | 76.3 °C | 59.7 °C | 60.4 °C | 83 °C |  | 84.8 °C | 51.5 °C | log Ks [24]: 4.5; log Ks [27]: 5.1; Activity [28]: inactive; Activity [29]: inactive; Activity [30]: inactive; Activity [31]: inactive; Activity [32]: inactive; Drug uptake [33]: Active; Drug uptake [34]: Active |
